Experimental data taken from PMC9302014, “PEGylation improves the therapeutic potential of dimerized translationally controlled tumor protein blocking peptide in ovalbumin-induced mouse model of airway inflammation” (Drug Delivery, 2022).

Tested on: OVA-induced allergic airway inflammation
Test: Mouse model of OVA-induced allergic airway inflammation
Assay type: in vivo
Details: single 1 mg/kg intraperitoneal on day 32, n = 10-12
Procedure: Sixty female BALB/c mice, 6–7 weeks of age, were randomly divided into five groups (12 mice per group) and intraperitoneally sensitized on days 1 and 14 with 50 μg OVA emulsified in 2 mg aluminum hydroxide in a total volume of 200 μl. The control group of naïve mice received the same volume of PBS for the duration of the experiment. Two weeks after the second sensitization, the animals were challenged with 200 μg of OVA through intranasal administration under light anesthesia on days 28, 30, 32, and 34. […]. On day 35, the mice were sacrificed and BALF, lung tissue, and serum were collected for further analysis.
Mice were anesthetized, and the trachea was excised, and cannulated with a polyethylene tube. The lungs were lavaged with 0.8 ml of PBS four times, and 0.6 ml of BALF was obtained. The collected lavage fluid was cooled on ice and centrifuged at 1,000 rpm for 10 min at 4 °C. The supernatant was used for ELISA assays. The pellets were resuspended in 0.1 ml PBS, and the total inflammatory cell numbers were quantified using a Hemavet (Drew Scientific Inc., Oxford, CT).
After lavage, the right lung lobe was isolated and stored at −80 °C until required. The lung tissue was homogenized in 50 mM Tris-HCl buffer (pH 7.4) containing 150 mM NaCl, 1 mM EDTA, 0.25% deoxycholate, and a protease inhibitor (Sigma) using a tissuelyser II (Qiagen). The lung homogenates were centrifuged at 10,000 × g for 10 min, and the supernatants were collected and used for ELISA assay.
The left lung lobe was fixed in 4% formaldehyde, embedded in paraffin, and sectioned at a thickness of 4 μm. The sections were stained with hematoxylin and eosin (H&E) to detect infiltration of inflammatory cells and with periodic acid-Schiff (PAS) staining for the analysis of goblet cells hyperplasia/mucus production. The H&E stained sections were scored for the presence of inflammatory cells using the following scale: (0) = absent, (1) = rare, (2) = mild, (3) = moderate, (4) = severe. Scoring was performed by 6 observers in a blinded manner. Also, the area of H&E stained cells was quantified in the selected field, and the area of PAS-positive cells per bronchiole was expressed as the % of the total epithelial area using ImageJ software (National Institute of Health, Bethesda, MD).
Statistical analysis was performed using GRAPHPAD^TM PRISM version 8.0 for Windows (GraphPad Software, San Diego, CA). Statistical significance was determined using Student’s two-tailed unpaired t-test for comparisons between two groups. For more than 3 groups, a one-way analysis of variance (ANOVA) was followed by Tukey’s test. Error bars were expressed as the mean ± the standard error of the mean (SEM) of 10 to 12 mice per group. Significant differences between means were defined as p < 0.05.

C[C@@H]1C[C@H]2[C@@H]3CCC4=CC(=O)C=C[C@]4(C)[C@@]3(F)[C@@H](O)C[C@]2(C)[C@@]1(O)C(=O)CO [Dex, dexamethasone]
levels of IL-4, IL-5, and IL-13 in lung homogenates increased by OVA challenge (ELISA): suppressed
number of lymphocytes in BALF compared to the OVA group: did not significantly suppress
number of monocytes in BALF compared to the OVA group: did not significantly suppress
number of total cells (total leukocytes) in BALF compared to the OVA-challenged group: no difference
